Source: PubChem BioAssay AID1963867 (Molecular Pharmacology Branch, DTP, NCI, 2024)

Test system: KRAS-mutant PDC tumor spheroid with HUVEC/MSC, viability
Test: Anticancer human tumor 327498-153-R-J2-PDC patient-derived uterine carcinosarcoma cell line growth inhibition [KRAS2]
Conditions: for IC50: curve of first compound; for viability, T/C: stronger effect = lower value; active = viability on the fitted dose curve at most 10% of control; inactive = the rest
Procedure, shortened: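 KRAS-mutant tumor cells were grown as spheroids with HUVEC endothelial cells and human MSCs as stroma. Targeted agents were tested alone and with KRAS pathway inhibitors. Doses started at or near clinical Cmax, or 10 microM, descending half-log.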
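Also: spheroids exposed to agents for seven days before reading.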
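For viability, T/C in this document: 100% = DMSO vehicle wells so lower means fewer viable cells.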

COc1cc(Nc2ncc3c(n2)-c2ccc(Cl)cc2C(c2c(F)cccc2OC)=NC3)ccc1C(=O)O + CNCc1ccccc1-c1csc(C(C)Nc2nc(C)nc3cc(OC)c(OC)cc23)c1
active: viability, T/C (second compound 3.16 µM, first compound 0.0316 µM) 0.1% | viability, T/C (second compound 3.16 µM, first compound 0.1 µM) 0.06% | viability, T/C (second compound 3.16 µM, first compound 0.316 µM) 0.05% | viability, T/C (second compound 3.16 µM, first compound 1 µM) 0.05% | viability, T/C (second compound 3.16 µM, first compound 3.16 µM) 0.06% | viability, T/C (second compound 3.16 µM, first compound 10 µM) 0.15% | viability, T/C (second compound 10 µM, first compound 0.0316 µM) 0.14% | viability, T/C (second compound 10 µM, first compound 0.1 µM) 0.13% | viability, T/C (second compound 10 µM, first compound 0.316 µM) 0.14% | viability, T/C (second compound 10 µM, first compound 1 µM) 0.13% | viability, T/C (second compound 10 µM, first compound 3.16 µM) 0.63% | viability, T/C (second compound 10 µM, first compound 10 µM) 0.22%
< 31.6 nM: IC50 (second compound 0.1 µM) | IC50 (second compound 0.316 µM) | IC50 (second compound 1 µM) | IC50 (second compound 3.16 µM) | IC50 (second compound 10 µM)
inactive: viability, T/C (second compound 0.1 µM, first compound 0.0316 µM) 16.1% | viability, T/C (second compound 0.1 µM, first compound 0.1 µM) 10.8% | viability, T/C (second compound 0.1 µM, first compound 0.316 µM) 9.69% | viability, T/C (second compound 0.1 µM, first compound 1 µM) 10.2% | viability, T/C (second compound 0.1 µM, first compound 3.16 µM) 12% | viability, T/C (second compound 0.1 µM, first compound 10 µM) 12.3% | viability, T/C (second compound 0.316 µM, first compound 0.0316 µM) 15.6% | viability, T/C (second compound 0.316 µM, first compound 0.1 µM) 11.1% | viability, T/C (second compound 0.316 µM, first compound 0.316 µM) 10.5% | viability, T/C (second compound 0.316 µM, first compound 1 µM) 10.8% | viability, T/C (second compound 0.316 µM, first compound 3.16 µM) 12.9% | viability, T/C (second compound 0.316 µM, first compound 10 µM) 12.8% | viability, T/C (second compound 1 µM, first compound 0.0316 µM) 14.7% | viability, T/C (second compound 1 µM, first compound 0.1 µM) 10.7% | viability, T/C (second compound 1 µM, first compound 0.316 µM) 8.64% | viability, T/C (second compound 1 µM, first compound 1 µM) 8.26% | viability, T/C (second compound 1 µM, first compound 3.16 µM) 11.9% | viability, T/C (second compound 1 µM, first compound 10 µM) 11.6%
